Literature values in patent US20070196322A1, “Method of preparing the colon for virtual colonoscopy” (Braintree Laboratories Inc., priority 2005, published 2007).
Like-named read-outs stand apart in the source and are kept apart here.

System: patient

CC(=O)Oc1ccc(C(c2ccc(OC(C)=O)cc2)c2ccccn2)cc1 [Bisacodyl, bisacodyl]
time to bowel movement (enemas): about 20 minutes | time to bowel movement (oral administration of a tablet): three to six | time to bowel movement (oral administration of a tablet, listed as bisacodyl): three to about six | time to bowel movement (suppositories): about an hour
